#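 Exposure lasted 48 hours, with cells grown in 96-well plates and compounds tested at five concentrations. GI50 is the concentration that inhibits growth by half. TGI denotes the concentration required for complete inhibition of growth.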
# Assays:
# Experiment in all cases: inhibition of tumour cell growth, NCI panel, 48 h
# [1] = tested on: RXF 393 renal
# [2] = tested on: SF-539 CNS
# [3] = tested on: MALME-3M melanoma
# [4] = tested on: BT-549 breast
# [5] = tested on: MCF7 breast
# [6] = tested on: SNB-75 CNS
# [7] = tested on: HT29 colon
# [8] = tested on: SW-620 colon
# [9] = tested on: DU-145 prostate
# [10] = tested on: OVCAR-4 ovarian
# [11] = tested on: UO-31 renal
# [12] = tested on: NCI-H522 lung
# [13] = tested on: COLO 205 colon
# [14] = tested on: PC-3 prostate
# [15] = tested on: IGROV1 ovarian
# [16] = tested on: K-562 leukemia
# [17] = tested on: U251 CNS
# [18] = tested on: HCT-15 colon
# [19] = tested on: MDA-MB-435
# [20] = tested on: SK-OV-3 ovarian
# [21] = tested on: HCT-116 colon
# [22] = tested on: ACHN renal
# [23] = tested on: CCRF-CEM leukemia
# [24] = tested on: T-47D breast
# [25] = tested on: SNB-19 CNS
# [26] = tested on: SF-295 CNS
# [27] = tested on: HOP-92 NSCLC
# [28] = tested on: SN12C renal
smiles,measurement,setting,value
C=C1CC[C@@H]2[C@]3(C)COC(c4cn[nH]c4-c4ccc(OC)cc4)O[C@@H]3CC[C@@]2(C)[C@@H]1C/C=C1/C(=O)OCC1O (stereo partly specified),GI50,[1],1740 nM
same,TGI,[1],3.4 µM
same,GI50,[2],2030 nM
same,TGI,[2],4.36 µM
same,GI50,[3],1740 nM
same,TGI,[3],3.64 µM
same,GI50,[4],2360 nM
same,TGI,[4],7.22 µM
same,GI50,[5],2480 nM
same,TGI,[5],11.8 µM
same,GI50,[6],1750 nM
same,TGI,[6],5.86 µM
same,GI50,[7],2860 nM
same,TGI,[7],7.91 µM
same,GI50,[8],2290 nM
same,TGI,[8],5.56 µM
same,GI50,[9],3.23 µM
same,TGI,[9],12.1 µM
same,GI50,[10],2960 nM
same,TGI,[10],> 100 µM
same,GI50,[11],1700 nM
same,TGI,[11],3.91 µM
same,GI50,[12],2490 nM
same,TGI,[12],7.81 µM
same,GI50,[13],1950 nM
same,TGI,[13],3.73 µM
same,GI50,[14],2980 nM
same,TGI,[14],> 100 µM
same,GI50,[15],3.98 µM
same,TGI,[15],20 µM
same,GI50,[16],2710 nM
same,TGI,[16],> 100 µM
same,GI50,[17],2770 nM
same,TGI,[17],10.7 µM
same,GI50,[18],2540 nM
same,TGI,[18],8.37 µM
same,GI50,[19],2240 nM
same,TGI,[19],6.42 µM
same,GI50,[20],10.5 µM
same,TGI,[20],67.4 µM
same,GI50,[21],1860 nM
same,TGI,[21],3.57 µM
same,GI50,[22],3.52 µM
same,TGI,[22],14.1 µM
same,GI50,[23],2080 nM
same,TGI,[23],6.9 µM
same,GI50,[24],3.25 µM
same,TGI,[24],> 100 µM
same,GI50,[25],4.42 µM
same,TGI,[25],19.4 µM
same,GI50,[26],2130 nM
same,TGI,[26],4.77 µM
same,GI50,[27],2020 nM
same,TGI,[27],5 µM
same,GI50,[28],3.54 µM
same,TGI,[28],16.5 µM
